From US11214803B2, “Modulators of YAP1 expression” (Ionis Pharmaceuticals, Inc., priority 2019, dated 2022)
Strand notation (5' to 3'): a small letter for the sugar, then the base; units joined by * are phosphorothioate-linked, units joined directly phosphodiester-linked; [ ] holds rarer units or linkages, { } end groups; capitals alone tell only the bases. e = 2'-O-(2-methoxyethyl) (MOE); k = constrained ethyl (cEt); [5mC] = 5-methylcytosine; d = 2'-deoxy (DNA); m = 2'-O-methyl

Key:
Assay type in all cases: cell-based
Yap1 mRNA [1] = assay: Antisense inhibition of human Yap1 in A-431 cells by cEt gapmers, single dose (Example 3, RTS36584)
Method: Modified oligonucleotides were designed to target a Yap1 nucleic acid and were tested for their effect on Yap1 mRNA level in vitro. The modified oligonucleotides were tested in a series of experiments that had similar culture conditions. Cultured A-431 cells at a density of 5,000 cells per well were treated using free uptake with 2,000 nM of modified oligonucleotide. After a treatment period of approximately 48 hours, RNA was isolated from the cells and Yap1 mRNA levels were measured by quantitative real-time RTPCR. Human primer probe set RTS36584 (forward sequence […], designated herein as SEQ ID NO.: 14; reverse sequence […], designated herein as SEQ ID NO.: 15; probe sequence […], designated herein as SEQ ID NO.: 16) was used to measure mRNA levels. Yap1 mRNA levels were normalized to total RNA content, as measured by RIBOGREEN®. Results are presented in the tables below as percent control of the amount of Yap1 mRNA relative to untreated control cells (% UTC). The modified oligonucleotides with percent control values marked with an asterisk (*) target the amplicon region of the primer probe set. Additional assays may be used to measure the potency and efficacy of the modified oligonucleotides targeting the amplicon region.
The newly designed modified oligonucleotides in the Tables below were designed as 3-10-3 cEt gapmers. The gapmers are 16 nucleosides in length, wherein the central gap segment comprises of ten 2′-deoxynucleosides and is flanked by wing segments on the 5′ direction and the 3′ direction comprising three nucleosides each. Each nucleoside in the 5′ wing segment and each nucleoside in the 3′ wing segment has a cEt sugar modification. The internucleoside linkages throughout each gapmer are phosphorothioate (P═S) linkages. All cytosine residues throughout each gapmer are 5-methylcytosines.
“Start site” indicates the 5′-most nucleoside to which the gapmer is targeted in the human gene sequence. “Stop site” indicates the 3′-most nucleoside to which the gapmer is targeted human gene sequence. […] Activity of the modified oligonucleotide may be defined in a different experiment.

Yap1 mRNA [2] = assay: Antisense inhibition of human Yap1 in A-431 cells by cEt gapmers, single dose (Example 2, RTS4814)
Summary of the method: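 A-431 cells (5,000/well) received 2,000 nM oligonucleotide by free uptake for about 48 h. Yap1 mRNA was then quantified by RT-qPCR with primer probe set RTS4814, normalized to RIBOGREEN total RNA, and reported as % of untreated control; asterisked values mark oligos inside the amplicon.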

Yap1 mRNA [3] = assay: Antisense inhibition of human Yap1 in SNU-449 cells by modified oligonucleotides, single dose (Example 5, RTS36584)
Summary of the method: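 SNU-449 cells (10,000/well) took up 2,000 nM oligonucleotide by free uptake for about 48 h. Yap1 mRNA was measured by qRT-PCR with primer probe set RTS36584 and normalised to RIBOGREEN total RNA. Values are % of untreated control; asterisked oligos target the amplicon region.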

[4] = Table 22, Yap1 mRNA as percent of untreated control, 3-10-3 cEt gapmers, single dose
[5] = Table 48, Yap1 mRNA level relative to untreated control, modified oligonucleotides targeting SEQ ID NO.: 1 and 2
[6] = Yap1 mRNA, percent of untreated control, modified oligonucleotides targeting SEQ ID NO: 1 and 2, Table 47
[7] = Table 42 (separate experiment), SNU-449 cells, 10,000 cells per well, free uptake, 2,000 nM modified oligonucleotide, approximately 48 hours, RTS36584, normalized to RIBOGREEN, Yap1 mRNA relative to untreated control cells
[8] = Table 52, Yap1 mRNA, modified oligonucleotides targeting SEQ ID NO: 1 and 2
[9] = Table 50, Yap1 mRNA remaining as percent of untreated control (UT), SNU-449 cells, single dose
[10] = Table 45, Yap1 mRNA as percent of untreated control, SNU-449 cells, single dose
[11] = Table 46, Yap1 mRNA as percent of untreated control, SNU-449 cells, single dose

958349 (k[5mC]*k[5mC]*kG*dA*dG*dT*d[5mC]*d[5mC]*d[5mC]*d[5mC]*dG*d[5mC]*dG*kG*kA*k[5mC]; antisense) [Compound 958349]
YAP1 (% UTC) (Yap1 mRNA [1]; Table 8, A-431 cells, 5,000 cells per well, free uptake, 2,000 nM, approximately 48 hours, RTS36584, normalized to RIBOGREEN, Yap1 mRNA relative to untreated control cells): 81 % UTC

958665 (k[5mC]*kT*kG*d[5mC]*dA*dT*dA*d[5mC]*d[5mC]*d[5mC]*dT*d[5mC]*d[5mC]*kA*kG*k[5mC]; antisense) [Compound 958665]
YAP1 (% UTC) (Yap1 mRNA [1]; Table 13, A-431 cells, 5,000 cells per well, free uptake, 2,000 nM modified oligonucleotide, approx. 48 hours, RTS36584, normalized to RIBOGREEN, Yap1 mRNA relative to untreated control cells): 84 % UTC

1074957 (antisense kA*kA*k[5mC]*d[5mC]*d[5mC]*dG*dG*dG*dT*dT*dT*dT*dT*kG*kT*k[5mC]) [compound 1074957]
YAP1 (% UTC) (Yap1 mRNA [1]; Table 27, Yap1 mRNA by 3-10-3 cEt gapmers targeting SEQ ID NO.: 1, and 2, percent of untreated control): 102 % UTC

1075189 (kG*k[5mC]*kT*dA*dA*dT*dA*dG*dT*d[5mC]*dA*d[5mC]*dT*kG*kT*kT; antisense) [compound 1075189]
YAP1 (% UTC) (Yap1 mRNA [1]; Table 35, Yap1 mRNA as percent of untreated control, 3-10-3 cEt gapmers targeting SEQ ID NO: 1 and 2, single dose): 11 % UTC

1074728 (antisense kT*kG*kA*dG*dG*dT*dA*dT*dA*dA*d[5mC]*dT*dG*kG*kG*k[5mC]) [Compound 1074728]
YAP1 (% UTC) (Yap1 mRNA [2]; [4]): 3 % UTC
YAP1 (% UT) (Yap1 mRNA [3]; [5]): 14 % UT

1076456 (antisense k[5mC]*kT*kT*dT*dA*dA*dA*dG*dT*dG*dT*dA*dT*kG*kT*k[5mC]) [Compound 1076456]
YAP1 (% UTC) (Yap1 mRNA [2]; [4]): 2 % UTC
YAP1 (% UT) (Yap1 mRNA [3]; [5]): 44 % UT

1074726 (antisense kG*kG*kT*dA*dT*dA*dA*d[5mC]*dT*dG*dG*dG*d[5mC]*kA*kA*kA) [Compound 1074726]
YAP1 (% UTC) (Yap1 mRNA [2]; Table 20, Yap1 mRNA, percent of untreated control, 3-10-3 cEt gapmers targeting SEQ ID NO.: 1 and 2): 2 % UTC
YAP1 (% UT) (Yap1 mRNA [3]; [5]): 23 % UT

1074756 (kG*k[5mC]*kA*d[5mC]*dT*dT*dT*dT*dA*d[5mC]*dA*dT*dT*kA*kG*kG) [Compound 1074756]
YAP1 (% UTC) (Yap1 mRNA [2]; Table 18, A-431 cells, 5,000 cells per well, free uptake, 2,000 nM modified oligonucleotide, approx. 48 hours, RTS4814, normalized to RIBOGREEN, Yap1 mRNA as percent of untreated control): 3 % UTC
YAP1 (% UT) (Yap1 mRNA [3]; [6]): 8 % UT

1074727 (antisense kG*kA*kG*dG*dT*dA*dT*dA*dA*d[5mC]*dT*dG*dG*kG*k[5mC]*kA) [Compound 1074727]
YAP1 (% UTC) (Yap1 mRNA [2]; Table 21, Yap1 mRNA, percent of untreated control, 3-10-3 cEt gapmers targeting SEQ ID NO.: 1 and 2): 9 % UTC
YAP1 (% UT) (Yap1 mRNA [3]; [5]): 51 % UT

716444 (kA*kA*kA*dT*dT*dG*dT*d[5mC]*dT*d[5mC]*dA*dT*dG*k[5mC]*k[5mC]*kT) [Compound 716444]
YAP1 (% UTC) (Yap1 mRNA [2]; Table 6, A-431 cells, 5,000 cells per well, free uptake, 2,000 nM modified oligonucleotide, approx. 48 hours, RTS4814, normalized to RIBOGREEN, Yap1 mRNA relative to untreated control cells): 40 % UTC
YAP1 (% UT) (Yap1 mRNA [3]; [6]): 46 % UT

1076453 (kG*kT*kA*dA*dT*dA*dT*dT*dG*d[5mC]*dA*dA*dT*k[5mC]*kT*kG) [Compound 1076453]
YAP1 (% UTC) (Yap1 mRNA [2]; Table 19, A-431 cells, 5,000 cells per well, free uptake, 2,000 nM modified oligonucleotide, approx. 48 hours, RTS4814, normalized to RIBOGREEN, Yap1 mRNA as percent of untreated control): 1 % UTC
YAP1 (% UT) (Yap1 mRNA [3]; [6]): 7 % UT

1198209 (kT*kA*dG*dA*dG*dT*dA*dT*dG*dT*dG*eG*e[5mC]*eA*kA*kT; antisense) [Compound 1198209]
YAP1 (% UTC) (Yap1 mRNA [3]; [7]): 45 % UTC

1200837 (kA*kT*kT*d[5mC]*dA*mG*dA*dT*dT*dT*dA*dG*dG*kA*kT*kG; antisense) [Compound 1200837]
YAP1 (% UT) (Yap1 mRNA [3]; [8]): 82 % UT

1198557 (antisense kA*kT*kA*dT*dT*dA*dG*dA*dG*dT*dA*dT*kG*kT*kG*eG) [Compound 1198557]
YAP1 (% UT) (Yap1 mRNA [3]; Table 49, Yap1 mRNA level relative to untreated control, modified oligonucleotides targeting SEQ ID NO.: 1 and 2): 16 % UT

1198278 (kT*kA*dA*dG*dT*dA*dA*dG*dG*dT*dT*eT*e[5mC]*e[5mC]*k[5mC]*kA; antisense) [Compound 1198278]
YAP1 (% UTC) (Yap1 mRNA [3]; Table 43 experiment, SNU-449 cells, 10,000 cells per well, free uptake, 2,000 nM, approximately 48 hours, RTS36584, Yap1 mRNA normalized to RIBOGREEN, relative to untreated control cells): 43 % UTC

716524 (antisense kA*k[5mC]*kT*dG*dA*dG*dG*dT*dA*dT*dA*dA*d[5mC]*kT*kG*kG) [Compound 716524]
YAP1 (% UTC) (Yap1 mRNA [2]; Table 5, A-431 cells, 5,000 cells per well, free uptake, 2,000 nM modified oligonucleotide, approx. 48 hours, RTS4814, normalized to RIBOGREEN, Yap1 mRNA relative to untreated control cells): 35 % UTC
YAP1 (% UT) (Yap1 mRNA [3]; [5]): 59 % UT

1200827 (kA*kG*kT*dG*d[5mC]*mU*dT*dT*dG*dG*dA*dA*dG*kA*kT*k[5mC]) [Compound 1200827]
YAP1 (% UT) (Yap1 mRNA [3]; [8]): 67 % UT

1198312 (kG*k[5mC]*kA*d[5mC]*dT*dT*dT*dT*dA*d[5mC]*dA*dT*kT*eA*kG*eG; antisense) [Compound 1198312]
YAP1 (% UT) (Yap1 mRNA [3]; [5]): 7 % UT

1197236 (antisense kT*kA*kT*dT*mA*dG*dA*dG*dT*dA*dT*dG*dT*kG*kG*k[5mC]) [Compound 1197236]
YAP1 (% UT) (Yap1 mRNA [3]; [9]): 17 % UT

1198971 (k[5mC]*kT*dA*dA*dG*dT*dA*dA*dG*dG*dT*kT*dT*k[5mC]*d[5mC]*k[5mC]; antisense) [Compound 1198971]
YAP1 (% UTC) (Yap1 mRNA [3]; [10]): 31 % UTC

1198750 (kG*eG*kA*dA*dG*dA*dT*d[5mC]*dT*dG*dA*dA*eA*e[5mC]*kT*k[5mC]; antisense) [Compound 1198750]
YAP1 (% UTC) (Yap1 mRNA [3]; Table 40 (separate experiment), SNU-449 cells, 10,000 cells per well, free uptake, 2,000 nM oligonucleotide, approx. 48 hours, RTS36584, normalized to RIBOGREEN, Yap1 mRNA relative to untreated control): 32 % UTC

1198942 (k[5mC]*kT*dT*dA*dT*dA*dT*dG*dG*dT*dT*kT*dT*kG*dT*kG; antisense) [Compound 1198942]
YAP1 (% UTC) (Yap1 mRNA [3]; [10]): 42 % UTC

1198680 (antisense k[5mC]*kT*dT*dA*dT*dA*dT*dG*dG*dT*dT*dT*kT*eG*kT*eG) [Compound 1198680]
YAP1 (% UTC) (Yap1 mRNA [3]; [7]): 28 % UTC

1198708 (kT*kA*dA*dG*dT*dA*dA*dG*dG*dT*dT*dT*k[5mC]*e[5mC]*k[5mC]*eA; antisense) [Compound 1198708]
YAP1 (% UTC) (Yap1 mRNA [3]; [7]): 34 % UTC

1198591 (antisense kA*kT*kT*d[5mC]*dA*dG*dA*dT*dT*dT*dA*dG*kG*kA*kT*eG) [Compound 1198591]
YAP1 (% UT) (Yap1 mRNA [3]; [9]): 106 % UT

1198867 (kG*kT*dA*dA*dT*dA*dT*dT*dG*d[5mC]*dA*kA*eT*k[5mC]*eT*kG; antisense) [Compound 1198867]
YAP1 (% UT) (Yap1 mRNA [3]; [11]): 25 % UT

1200814 (kA*k[5mC]*kT*dT*dT*mU*dA*d[5mC]*dA*dT*dT*dA*dG*kG*kA*kA; antisense) [Compound 1200814]
YAP1 (% UT) (Yap1 mRNA [3]; [8]): 73 % UT

1198834 (kA*kA*dG*d[5mC]*dA*d[5mC]*dT*dT*dT*dT*dA*k[5mC]*eA*kT*eT*kA; antisense) [Compound 1198834]
YAP1 (% UT) (Yap1 mRNA [3]; [11]): 54 % UT

1198932 (kT*kT*dA*dG*dG*dA*dT*dG*d[5mC]*dA*dT*kG*dG*kT*dT*kT; antisense) [Compound 1198932]
YAP1 (% UTC) (Yap1 mRNA [3]; [10]): 35 % UTC

1198875 (kA*kA*dA*dG*dT*dG*dT*dA*dT*dG*dT*k[5mC]*eA*kG*eA*kA; antisense) [Compound 1198875]
YAP1 (% UT) (Yap1 mRNA [3]; [6]): 5 % UT
